Experimental data as given in ChEMBL document CHEMBL3865792, “Antioxidant and antitumor activity of trolox, trolox succinate, and α-tocopheryl succinate conjugates with nitroxides” (Eur J Med Chem, 2016).

Tested on: not listed separately
Experiment: Cytotoxicity against human RPMI8226 cells assessed as reduction in cell viability after 72 hrs by MTT assay
Format: functional, cell-based
Details: RPMI-8226, 72 h

**Q.** With Cc1c(C)c2c(c(C)c1OC(=O)CCC(=O)NCC1CC(C)(C)N([O])C1(C)C)CC[C@@](C)(CCC[C@H](C)CCC[C@H](C)CCCC(C)C)O2 (some centres not stated) as the compound, how does the IC50 read?
**A.** The IC50 was 217 µM.

Tested on: not listed separately
Experiment: Genotoxicity in Escherichia coli PQ37 expressing lacZ gene assessed as ratio of inducible beta-galactosidase activity to alkaline phosphatase activity at 30 mM after 2 hrs by SOS-chromotest relative to control
Format: toxicity
Details: Escherichia coli PQ37 cells expressing lacZ gene, read-out: FC

**Q.** With Cc1c(C)c2c(c(C)c1OC(=O)CCC(=O)NCC1CC(C)(C)N([O])C1(C)C)CC[C@@](C)(CCC[C@H](C)CCC[C@H](C)CCCC(C)C)O2 (some centres not stated) as the compound, how does the fold induction at 2 h, 30000 µM read?
**A.** The fold induction at 2 h, 30000 µM was 1.

Tested on: Salmonella typhimurium
Experiment: Genotoxicity in Salmonella typhimurium TA102 harboring […] mutant assessed as frequency of reversion from histidine auxotrophy to prototrophy at 30 mM after 48 hrs by Ames test (reference value: 209 +/- 10 No _unit)
Format: toxicity, organism-based
Details: salmonella enterica subsp. enterica serovar typhimurium, 30000 µM

**Q.** Which Activity does the source give for Cc1c(C)c2c(c(C)c1OC(=O)CCC(=O)NCC1CC(C)(C)N([O])C1(C)C)CC[C@@](C)(CCC[C@H](C)CCC[C@H](C)CCCC(C)C)O2 (some centres not stated) here?
**A.** Its Activity is 215.

Tested on: not listed separately
Experiment: Ratio of IC50 for human MT4 cells to concentration causing antioxidant activity in Salmonella typhimurium TA102 harboring […] mutant
Format: functional
Details: not given

**Q.** For Cc1c(C)c2c(c(C)c1OC(=O)CCC(=O)NCC1CC(C)(C)N([O])C1(C)C)CC[C@@](C)(CCC[C@H](C)CCC[C@H](C)CCCC(C)C)O2 (some centres not stated), which Ratio is on record?
**A.** The Ratio was 100 - 1000.

Tested on: not listed separately
Experiment: Cytotoxicity against human MCF7 cells assessed as reduction in cell viability after 72 hrs by MTT assay
Format: functional, cell-based
Details: MCF7, 72 h

**Q.** With Cc1c(C)c2c(c(C)c1OC(=O)CCC(=O)NCC1CC(C)(C)N([O])C1(C)C)CC[C@@](C)(CCC[C@H](C)CCC[C@H](C)CCCC(C)C)O2 (some centres not stated) as the compound, how does the IC50 read?
**A.** Its IC50 is 260 µM.

Tested on: not listed separately
Experiment: Cytotoxicity against mouse LMTK cells assessed as reduction in cell viability after 72 hrs by MTT assay
Format: toxicity
Details: not given

**Q.** For Cc1c(C)c2c(c(C)c1OC(=O)CCC(=O)NCC1CC(C)(C)N([O])C1(C)C)CC[C@@](C)(CCC[C@H](C)CCC[C@H](C)CCCC(C)C)O2 (some centres not stated), which IC50 at 72 h is on record?
**A.** The IC50 at 72 h was over 300 µM.

Tested on: not listed separately
Experiment: Cytotoxicity against human HepG2 cells assessed as reduction in cell viability after 72 hrs by MTT assay
Format: functional, cell-based
Details: HepG2, 72 h

**Q.** For Cc1c(C)c2c(c(C)c1OC(=O)CCC(=O)NCC1CC(C)(C)N([O])C1(C)C)CC[C@@](C)(CCC[C@H](C)CCC[C@H](C)CCCC(C)C)O2 (some centres not stated), which IC50 is on record?
**A.** Its IC50 is over 300 µM.

Tested on: not listed separately
Experiment: Ratio of IC50 for human CEM13 cells to concentration causing antioxidant activity in Salmonella typhimurium TA102 harboring […] mutant
Format: functional
Details: not given

**Q.** Which Ratio does the source give for Cc1c(C)c2c(c(C)c1OC(=O)CCC(=O)NCC1CC(C)(C)N([O])C1(C)C)CC[C@@](C)(CCC[C@H](C)CCC[C@H](C)CCCC(C)C)O2 (some centres not stated) here?
**A.** Its Ratio is 100 - 1000.

Tested on: not listed separately
Experiment: Ratio of IC50 for human MCF7 cells to concentration causing antioxidant activity in Salmonella typhimurium TA102 harboring […] mutant
Format: functional
Details: not given

**Q.** For Cc1c(C)c2c(c(C)c1OC(=O)CCC(=O)NCC1CC(C)(C)N([O])C1(C)C)CC[C@@](C)(CCC[C@H](C)CCC[C@H](C)CCCC(C)C)O2 (some centres not stated), which Ratio is on record?
**A.** Its Ratio is 100 - 1000.

Tested on: Salmonella enterica subsp. enterica serovar Typhimurium
Experiment: Antioxidant activity in Salmonella typhimurium TA102 harboring […] mutant assessed as inhibition of t-BuO2H-dependant mutant formation at 0.3 uM preincubated with compound followed by t-BuO2H addition after 48 hrs by Ames test
Format: functional
Details: not given

**Q.** With Cc1c(C)c2c(c(C)c1OC(=O)CCC(=O)NCC1CC(C)(C)N([O])C1(C)C)CC[C@@](C)(CCC[C@H](C)CCC[C@H](C)CCCC(C)C)O2 (some centres not stated) as the compound, how does the inhibition read?
**A.** Its inhibition is 1%.

Tested on: Salmonella enterica subsp. enterica serovar Typhimurium
Experiment: Antioxidant activity in Salmonella typhimurium TA102 harboring […] mutant assessed as inhibition of t-BuO2H-dependant mutant formation at 30 uM preincubated with compound followed by t-BuO2H addition after 48 hrs by Ames test
Format: functional
Details: not given

**Q.** For Cc1c(C)c2c(c(C)c1OC(=O)CCC(=O)NCC1CC(C)(C)N([O])C1(C)C)CC[C@@](C)(CCC[C@H](C)CCC[C@H](C)CCCC(C)C)O2 (some centres not stated), which inhibition is on record?
**A.** Its inhibition is 24%.

Tested on: not listed separately
Experiment: Ratio of IC50 for human U937 cells to concentration causing antioxidant activity in Salmonella typhimurium TA102 harboring […] mutant
Format: functional, U-937
Details: not given

**Q.** For Cc1c(C)c2c(c(C)c1OC(=O)CCC(=O)NCC1CC(C)(C)N([O])C1(C)C)CC[C@@](C)(CCC[C@H](C)CCC[C@H](C)CCCC(C)C)O2 (some centres not stated), which Ratio is on record?
**A.** Its Ratio is 100 - 1000.

Tested on: Salmonella enterica subsp. enterica serovar Typhimurium
Experiment: Antioxidant activity in Salmonella typhimurium TA102 harboring […] mutant assessed as inhibition of t-BuO2H-dependant mutant formation at 3 uM preincubated with compound followed by t-BuO2H addition after 48 hrs by Ames test
Format: functional
Details: not given

**Q.** Which inhibition does the source give for Cc1c(C)c2c(c(C)c1OC(=O)CCC(=O)NCC1CC(C)(C)N([O])C1(C)C)CC[C@@](C)(CCC[C@H](C)CCC[C@H](C)CCCC(C)C)O2 (some centres not stated) here?
**A.** Its inhibition is 4%.

Tested on: not listed separately
Experiment: Ratio of IC50 for human HEPG2 cells to concentration causing antioxidant activity in Salmonella typhimurium TA102 harboring […] mutant
Format: functional
Details: not given

**Q.** For Cc1c(C)c2c(c(C)c1OC(=O)CCC(=O)NCC1CC(C)(C)N([O])C1(C)C)CC[C@@](C)(CCC[C@H](C)CCC[C@H](C)CCCC(C)C)O2 (some centres not stated), which Ratio is on record?
**A.** Its Ratio is 100 - 1000.

Tested on: not listed separately
Experiment: Cytotoxicity against hamster AG17-1 cells assessed as reduction in cell viability at 300 uM after 72 hrs by MTT assay
Format: toxicity, cell-based, Cricetulus griseus
Details: Chinese hamster, read-out: INH

**Q.** Which cytotoxicity at 72 h, 300 µM does the source give for Cc1c(C)c2c(c(C)c1OC(=O)CCC(=O)NCC1CC(C)(C)N([O])C1(C)C)CC[C@@](C)(CCC[C@H](C)CCC[C@H](C)CCCC(C)C)O2 (some centres not stated) here?
**A.** Its cytotoxicity at 72 h, 300 µM is 32%.

Tested on: not listed separately
Experiment: Cytotoxicity against hamster AG17-1 cells assessed as reduction in cell viability after 72 hrs by MTT assay
Format: toxicity, cell-based, Cricetulus griseus
Details: Chinese hamster

**Q.** For Cc1c(C)c2c(c(C)c1OC(=O)CCC(=O)NCC1CC(C)(C)N([O])C1(C)C)CC[C@@](C)(CCC[C@H](C)CCC[C@H](C)CCCC(C)C)O2 (some centres not stated), which IC50 at 72 h is on record?
**A.** The IC50 at 72 h was over 300 µM.

Tested on: not listed separately
Experiment: Cytotoxicity against human CEM13 cells assessed as reduction in cell viability after 72 hrs by MTT assay
Format: functional, cell-based
Details: CEM13, 72 h

**Q.** For Cc1c(C)c2c(c(C)c1OC(=O)CCC(=O)NCC1CC(C)(C)N([O])C1(C)C)CC[C@@](C)(CCC[C@H](C)CCC[C@H](C)CCCC(C)C)O2 (some centres not stated), which IC50 is on record?
**A.** The IC50 was 105 µM.

Tested on: not listed separately
Experiment: Cytotoxicity against human MT4 cells assessed as reduction in cell viability after 72 hrs by MTT assay
Format: functional, cell-based
Details: MT4, 72 h

**Q.** Which IC50 does the source give for Cc1c(C)c2c(c(C)c1OC(=O)CCC(=O)NCC1CC(C)(C)N([O])C1(C)C)CC[C@@](C)(CCC[C@H](C)CCC[C@H](C)CCCC(C)C)O2 (some centres not stated) here?
**A.** Its IC50 is 92 µM.

Tested on: not listed separately
Experiment: Cytotoxicity against human U937 cells assessed as reduction in cell viability after 72 hrs by MTT assay
Format: functional, cell-based
Details: U-937, 72 h

**Q.** Which IC50 does the source give for Cc1c(C)c2c(c(C)c1OC(=O)CCC(=O)NCC1CC(C)(C)N([O])C1(C)C)CC[C@@](C)(CCC[C@H](C)CCC[C@H](C)CCCC(C)C)O2 (some centres not stated) here?
**A.** Its IC50 is 137 µM.

Tested on: not listed separately
Experiment: Cytotoxicity against human HepG2 cells assessed as reduction in cell viability at 300 uM after 72 hrs by MTT assay
Format: functional
Details: HepG2, 72 h

**Q.** For Cc1c(C)c2c(c(C)c1OC(=O)CCC(=O)NCC1CC(C)(C)N([O])C1(C)C)CC[C@@](C)(CCC[C@H](C)CCC[C@H](C)CCCC(C)C)O2 (some centres not stated), which inhibition at 300 µM is on record?
**A.** Its inhibition at 300 µM is 10%.

Tested on: not listed separately
Experiment: Cytotoxicity against mouse LMTK cells assessed as reduction in cell viability at 300 uM after 72 hrs by MTT assay
Format: toxicity
Details: read-out: INH

**Q.** Which cytotoxicity at 72 h, 300 µM does the source give for Cc1c(C)c2c(c(C)c1OC(=O)CCC(=O)NCC1CC(C)(C)N([O])C1(C)C)CC[C@@](C)(CCC[C@H](C)CCC[C@H](C)CCCC(C)C)O2 (some centres not stated) here?
**A.** Its cytotoxicity at 72 h, 300 µM is 7%.

Tested on: not listed separately
Experiment: Ratio of IC50 for human RPMI8226 cells to concentration causing antioxidant activity in Salmonella typhimurium TA102 harboring […] mutant
Format: functional, RPMI-8226
Details: not given

**Q.** Which Ratio does the source give for Cc1c(C)c2c(c(C)c1OC(=O)CCC(=O)NCC1CC(C)(C)N([O])C1(C)C)CC[C@@](C)(CCC[C@H](C)CCC[C@H](C)CCCC(C)C)O2 (some centres not stated) here?
**A.** Its Ratio is 100 - 1000.
